Results reported in publication PMC12712055, “3D-MINFLUX nanoscopy reveals distinct allosteric mechanisms for activation and modulation of PIEZO1 by Yoda1” (Nature Communications, 2025).

Legend:
Test in all cases: calcium imaging (genetically encoded Ca2+ indicator), peak F/F0
Format in all cases: cell-based
[1] = biological target: T1, mouse PIEZO1 (PIEZO1-mScarlet / PIEZO1-ALFA-mGL) (Mus musculus, UniProt E2JF22)
T1 construct: full-length; C-terminal mScarlet (SG linker), or ALFA tag inserted after H86 plus C-terminal mGreenLantern (SG linker); transiently expressed in N2a-P1KO (mouse Neuro-2a PIEZO1-knockout) cells; homotrimer

[2] = biological target: T2, mouse PIEZO1 (PIEZO1-mScarlet / PIEZO1-ALFA-mGL) (Mus musculus, UniProt E2JF22, F1715A/V1714A)
T2 construct: full-length; C-terminal mScarlet (SG linker), or ALFA tag inserted after H86 plus C-terminal mGreenLantern (SG linker); transiently expressed in N2a-P1KO (mouse Neuro-2a PIEZO1-knockout) cells; homotrimer

[3] = biological target: T3, mouse PIEZO1 (PIEZO1-mScarlet / PIEZO1-ALFA-mGL) (Mus musculus, UniProt E2JF22, A2094W)
T3 construct: full-length; C-terminal mScarlet (SG linker), or ALFA tag inserted after H86 plus C-terminal mGreenLantern (SG linker); transiently expressed in N2a-P1KO (mouse Neuro-2a PIEZO1-knockout) cells; homotrimer
T3 sequence (E2JF22 whole entry A2094W): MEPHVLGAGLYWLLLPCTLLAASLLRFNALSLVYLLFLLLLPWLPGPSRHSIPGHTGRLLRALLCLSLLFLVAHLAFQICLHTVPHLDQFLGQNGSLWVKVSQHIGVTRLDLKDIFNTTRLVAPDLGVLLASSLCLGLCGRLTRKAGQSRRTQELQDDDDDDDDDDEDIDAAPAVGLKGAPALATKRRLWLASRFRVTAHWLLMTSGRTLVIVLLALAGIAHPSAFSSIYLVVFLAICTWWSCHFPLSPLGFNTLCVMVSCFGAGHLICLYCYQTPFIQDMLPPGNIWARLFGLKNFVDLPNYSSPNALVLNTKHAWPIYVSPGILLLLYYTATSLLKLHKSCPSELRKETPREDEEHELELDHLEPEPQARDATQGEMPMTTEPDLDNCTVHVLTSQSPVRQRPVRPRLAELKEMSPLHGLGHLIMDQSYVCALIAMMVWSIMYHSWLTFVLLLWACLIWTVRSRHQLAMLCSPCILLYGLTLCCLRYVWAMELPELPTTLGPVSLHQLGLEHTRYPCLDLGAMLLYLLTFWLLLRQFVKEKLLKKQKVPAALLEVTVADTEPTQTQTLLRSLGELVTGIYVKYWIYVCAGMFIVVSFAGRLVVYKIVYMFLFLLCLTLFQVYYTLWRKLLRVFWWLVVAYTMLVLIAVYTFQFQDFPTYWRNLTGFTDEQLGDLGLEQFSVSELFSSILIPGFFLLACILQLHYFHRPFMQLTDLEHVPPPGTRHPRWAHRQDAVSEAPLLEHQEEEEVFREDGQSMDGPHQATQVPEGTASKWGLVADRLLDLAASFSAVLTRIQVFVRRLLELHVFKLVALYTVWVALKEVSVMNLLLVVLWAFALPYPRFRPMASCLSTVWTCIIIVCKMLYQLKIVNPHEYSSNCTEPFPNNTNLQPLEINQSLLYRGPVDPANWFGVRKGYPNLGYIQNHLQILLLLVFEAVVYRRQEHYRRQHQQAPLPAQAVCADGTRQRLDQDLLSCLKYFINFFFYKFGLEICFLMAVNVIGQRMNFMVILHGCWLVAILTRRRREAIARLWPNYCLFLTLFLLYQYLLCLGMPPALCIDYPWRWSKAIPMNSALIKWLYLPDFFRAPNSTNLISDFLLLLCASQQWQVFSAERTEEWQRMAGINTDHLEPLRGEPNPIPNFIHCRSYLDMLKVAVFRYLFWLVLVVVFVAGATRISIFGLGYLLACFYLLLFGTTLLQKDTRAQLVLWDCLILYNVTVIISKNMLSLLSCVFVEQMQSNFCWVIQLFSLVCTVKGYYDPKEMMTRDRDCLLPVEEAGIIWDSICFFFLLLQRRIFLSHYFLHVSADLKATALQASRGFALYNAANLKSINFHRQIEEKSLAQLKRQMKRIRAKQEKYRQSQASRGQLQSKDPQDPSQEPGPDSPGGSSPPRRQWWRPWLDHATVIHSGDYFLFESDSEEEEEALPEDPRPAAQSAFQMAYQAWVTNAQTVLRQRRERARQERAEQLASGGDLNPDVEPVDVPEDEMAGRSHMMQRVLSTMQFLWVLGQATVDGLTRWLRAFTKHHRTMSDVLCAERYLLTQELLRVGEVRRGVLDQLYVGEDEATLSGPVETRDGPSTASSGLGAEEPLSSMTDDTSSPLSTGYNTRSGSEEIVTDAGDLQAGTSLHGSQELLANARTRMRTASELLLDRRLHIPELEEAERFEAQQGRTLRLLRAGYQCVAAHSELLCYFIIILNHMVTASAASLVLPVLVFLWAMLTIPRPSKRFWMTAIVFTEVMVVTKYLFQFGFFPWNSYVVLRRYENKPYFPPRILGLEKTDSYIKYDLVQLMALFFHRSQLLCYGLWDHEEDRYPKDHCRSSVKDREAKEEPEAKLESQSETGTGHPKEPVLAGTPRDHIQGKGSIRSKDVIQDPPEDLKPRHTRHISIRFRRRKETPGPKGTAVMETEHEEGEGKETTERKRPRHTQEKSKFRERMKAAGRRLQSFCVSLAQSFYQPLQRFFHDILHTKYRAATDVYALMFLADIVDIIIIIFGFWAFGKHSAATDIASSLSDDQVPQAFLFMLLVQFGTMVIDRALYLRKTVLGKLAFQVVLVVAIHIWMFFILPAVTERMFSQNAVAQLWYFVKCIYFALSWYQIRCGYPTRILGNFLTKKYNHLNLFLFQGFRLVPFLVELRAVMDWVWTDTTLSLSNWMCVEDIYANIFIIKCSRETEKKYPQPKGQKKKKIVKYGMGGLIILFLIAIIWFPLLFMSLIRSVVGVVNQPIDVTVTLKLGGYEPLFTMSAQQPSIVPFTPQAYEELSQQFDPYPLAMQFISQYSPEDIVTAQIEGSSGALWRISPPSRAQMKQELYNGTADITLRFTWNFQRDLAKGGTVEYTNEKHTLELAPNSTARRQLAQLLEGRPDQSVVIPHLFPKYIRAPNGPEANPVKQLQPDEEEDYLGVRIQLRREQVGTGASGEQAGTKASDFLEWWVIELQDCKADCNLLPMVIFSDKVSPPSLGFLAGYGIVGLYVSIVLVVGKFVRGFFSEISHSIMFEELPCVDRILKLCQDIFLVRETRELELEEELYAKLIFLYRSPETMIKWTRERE

T1 sequence (E2JF22 whole entry): as the sequence (E2JF22 whole entry A2094W) above, with W2094A counted along it
T2 sequence (E2JF22 whole entry V1714A/F1715A): as the sequence (E2JF22 whole entry A2094W) above, with V1714A, F1715A, W2094A counted along it

EC50 [1]: 30 nM
EC50 [2]: 67 nM
EC50 [3]: 7030 nM
SMILES: O=C(O)c1ccc(-c2nnc(SCc3c(Cl)cccc3Cl)s2)cc1 [Yoda2]
